Measured values as given in US20170196842A1, “METHODS OF TREATMENT USING A 1,2,4-OXADIAZOLE BENZOIC ACID” (PTC Therapeutics, Inc., priority 2014, published 2017).
“Also recorded” adds a separate entry of the source.

Assays:
[1] = system: Mouse embryonic fibroblasts (MEFs); assay: Cell toxicity/stress (visual inspection) and total protein concentration in MEFs; type: cell-based; details: 24 hours
Procedure: The greatest reduction of GAG levels occurred at 10 μg/mL with decreased reduction of GAG levels at concentrations above 20 μg/mL. […] Cell viability was determined by quantifying the total protein concentration in each lysate.
The effect of Compound 1 on iduronidase activity as a result of readthrough of the premature stop codon present in the Idua gene was determined in an in vitro GAG accumulation assay. This assay utilized primary fibroblasts isolated from 13 day-old +/+ and −/− Idua-W392X mouse embryos. Mouse embryonic fibroblasts (MEFs) were isolated from 13 day-old wild type and homozygous Idua-W392X mouse embryo littermates. The cells were grown in Dulbecco's Modified Eagle Media (DMEM) containing 10% bovine calf serum (BCS)+1% non-essential amino acids+1% penicillin/streptomycin at 37° C. and 5% CO2. The MEFs were isolated and grown on collagen-coated plates until ˜50% confluent. MEFs from Idua-W392X mice were treated with increasing concentrations of Compound 1 dissolved in DMSO to a final concentration of 0.2%. Cells were incubated with Compound 1 for 24 hours. Controls included untreated wild type and untreated Idua-W392X MEFs. […]
The total protein concentration in each lysate was determined using the Bio-Rad protein assay with a standard curve generated using bovine serum albumin.

Idua-W402X mice = assay: Tissue GAG levels in the nonsense-mutation Hurler mouse model, Compound 1 given in chow; type: in vivo
Procedure: Compound 1 was administered to Idua-W402X mice by mixing Compound 1 into solid mouse chow at concentrations of 0.1%. 0.3% or 1.0% (w/w) for 2 weeks, after which time GAG levels in the brain, spleen, heart, liver, lung, and kidney tissues were quantified.
The effect of Compound 1 on iduronidase activity as a result of readthrough of the premature stop codon present in the Idua gene (Idua-W392X) was determined in a nonsense-mutation containing mouse model of Hurler syndrome, referred to as the Idua-W392X Hurler mouse. The study initiated when mice were 3-4 weeks old.
Homozygous Idua-W392X mice were offered food prepared with or without Compound 1 for 14 days. Wild type animals received chow without Compound 1 for 14 days. Assay results were obtained from tissues isolated from wild type (+/+) and homozygous Idua-W392X (−/−) mice after 14 days of treatment. Briefly, Compound 1 was dissolved in water, mixed into pulverized chow, shaped into pellets and dried.
Following the 14-day treatment period, mice were anesthetized using isoflurane and transcardially perfused with 20 mL saline prior to tissue collection. At the time of sacrifice, brain, liver, heart, lung, spleen and kidney were collected and frozen at −80° C. until used for determination of GAG levels.
GAG levels were determined using the Blyscan Sulfated GAG Assay (Biocolor Ltd, UK). Briefly, 50 μL of each lysate was added to 500 μL of the Blyscan Dye Reagent and mixed by vortexing. The mixture was incubated at room temperature for 30 minutes, vortexing every 5 minutes. The dye-bound GAGs were isolated from the solution by centrifuging for 10 minutes at 10,000 g at room temperature. A total of 500 μL of the Blyscan Dye Dissociation Reagent was added to the […] from each sample. The samples were vortexed and incubated for 10 minute at room temperature. The entire volume of each sample was then placed into a cuvette and the absorbance was measured at a wavelength of 656 nm. The total amount of sulfated GAGs precipitated from each sample was determined from a standard curve using chondroitin 4-sulfate. The total protein concentration in each lysate was determined using the Bio-Rad protein assay with a standard curve generated using bovine serum albumin.

[2] = Weight gain and food intake of mice given Compound 1 in chow; type: in vivo, C57BL/6J mice; details: 1.0% (w/w) in chow
Text: Mice receiving food containing 1.0% (w/w) Compound 1 are 45% less food than mice receiving the control chow. However, a reduction in weight gain would not be expected to elicit a reduction in tissue GAG levels in the pharmacology studies.

[3] = Idua-W402X (W392X) mice, 0.1%, 0.3%, 1.0% (w/w) chow, 14 days
[4] = Idua-W402X mice, 0.1% (w/w) in chow, 2 weeks
[5] = Idua-W402X mice, 0.3% (w/w) in chow, 2 weeks
[6] = Idua-W402X mice, 1.0% (w/w) in chow, 2 weeks

O=C(O)c1cccc(-c2noc(-c3ccccc3F)n2)c1 [Compound 1, 3-[5-(2-fluoro-phenyl)-[1,2,4]oxadiazol-3-yl]-benzoic acid]
Changes in total protein concentration (cell viability) ([1]; 0 to 40 μg/mL): No notable changes
Signs of cellular toxicity or stress (cells rounding up or floating, changes in cell density) ([1]; up to the highest concentration tested (40 μg/mL)): No signs of cellular toxicity or stress; also recorded: No signs of cell toxicity or stress
Nonsense suppression activity as determined by decreased GAG levels in multiple tissues (Idua-W402X mice; Idua-W392X mice, chow, 14 days): concentration-dependent nonsense suppression activity
Compound 1 concentration in chow giving maximal reduction of GAG levels in brain, spleen, heart and lung (Idua-W402X mice; [3]): 0.1%
Compound 1 concentration in chow giving maximal reduction of liver GAG levels (Idua-W402X mice; [3]): 0.3%
Effect on GAG levels in the kidney (Idua-W402X mice; Idua-W402X (W392X) mice, any dose (0.1-1.0% chow)): No statistically significant effect
Reduction in Excess GAG Levels, Brain (Idua-W402X mice; [4]): 70%
Reduction in Excess GAG Levels, Heart (Idua-W402X mice; [4]): 36%
Reduction in Excess GAG Levels, Kidney (Idua-W402X mice; [4]): 0%
Reduction in Excess GAG Levels, Liver (Idua-W402X mice; [4]): 0%
Reduction in Excess GAG Levels, Lung (Idua-W402X mice; [4]): 19%
Reduction in Excess GAG Levels, Spleen (Idua-W402X mice; [4]): 78%
GAG levels achieved in the brain and spleen (Idua-W402X mice; Idua-W402X mice, 0.1% in chow, 2 weeks): near normal GAG levels
Reduction in Excess GAG Levels, Brain (Idua-W402X mice; [5]): 37%
Reduction in Excess GAG Levels, Heart (Idua-W402X mice; [5]): 0%
Reduction in Excess GAG Levels, Kidney (Idua-W402X mice; [5]): 0%
Reduction in Excess GAG Levels, Liver (Idua-W402X mice; [5]): 53%
Reduction in Excess GAG Levels, Lung (Idua-W402X mice; [5]): 11%
Reduction in Excess GAG Levels, Spleen (Idua-W402X mice; [5]): 57%
Reduction in Excess GAG Levels, Brain (Idua-W402X mice; [6]): 28%
Reduction in Excess GAG Levels, Heart (Idua-W402X mice; [6]): 0%
Reduction in Excess GAG Levels, Kidney (Idua-W402X mice; [6]): 0%
Reduction in Excess GAG Levels, Liver (Idua-W402X mice; [6]): 17%
Reduction in Excess GAG Levels, Lung (Idua-W402X mice; [6]): 14%
Reduction in Excess GAG Levels, Spleen (Idua-W402X mice; [6]): 11%
Reduction of food intake versus control chow [2]: 45%
Weight gain versus 0.1%, 0.3% doses or vehicle ([2]; satellite PK study and Idua-W402X pharmacology studies): did not gain as much weight
